Measured values: PMC11973282, “RAS70 peptide targets multiforme glioblastoma by binding to the plasma membrane heat shock protein HSP70” (Frontiers in Oncology, 2025)

Tests used:
[1] = tested on: U87 cells (lower chamber; HUVEC and astrocytes barrier); assay: Transwell BBB model, peptide passage and accumulation in tumor cells (also with antibody pre-treatment); format: in vitro ADME, human; conditions: transwell BBB model: HUVEC (5×10^5) and astrocytes (5×10^5) in upper chamber, U87 (1×10^4) in lower chamber; FITC-labeled peptide; 36 hours; confocal microscopy count; M ± SE, 3 independent experiments
Description: Fluorescently labeled cells were counted in the lower chamber.
Next, we assessed the mHsp70- and integrin (αvβ3, αvβ5)-mediated penetration of the TKD and RAS70 via the BBB ( Figure 9B ). […] When anti-αvβ3 and anti-αvβ5 mAbs were employed, we detected the decrease of NGL-RGD and RAS70 penetration via the BBB but not the NGL and TKD peptides.

[2] = tested on: high-grade glioma biopsy material; assay: Ex vivo topical application on patient brain tumor specimens, confocal/fluorescent microscopy; set-up: species or system human
Description: To study RAS70 peptide accumulation in the brain tumors the latter were obtained from neuro-oncological patients. Intraoperative biopsy material obtained from adult (n=6) and pediatric (n=2) patients with radiological diagnosis of high-grade gliomas without previous radiation therapy and chemotherapy. The patients underwent microsurgical interventions between February 2024 and July 2024 ( Table 1 ). The study protocol was approved by the Ethics Committee of the Almazov Medical Research Centre (approval No. 2712-20, December 21, 2020).
To evaluate local accumulation of the fluorescently-labeled peptides the latter were sprayed over the freshly dissected brain tumor specimens as follows (1): control group – PBS (50 μL) (2); NGL-sCy7.5 peptide (50 μl, at concentration of 100 μg) (3); NGL-RGD-sCy7.5 peptide (50 μl, at concentration of 100 μg) (4); TKD-sCy7.5 peptide (50 μl, at concentration of 100 μg) (5); […] peptide (50 μl, at concentration of 100 μg). […]
Small pieces of brain tissue (50-100 mm³) were taken from patients or animals during surgery. […] Hoechst 33342 fluorescence was excited with a 405 nm laser and recorded in the range 410 to 550 nm; Hsp70-FITC and Mito Green fluorescence were excited with a 488 nm laser and recorded in the range 495 to 550 nm; and Cy5 fluorescence was excited with a 633 nm laser and recorded in the range 635 to 750 nm. […]
To study the target properties of the peptide RAS70 ex vivo, biopsy material was obtained from adult (n=6) and pediatric (n=2) neurooncological patients ( Table 1 ). […] Subsequently, tumor was co-incubated with peptide at a concentration of 1 mg/mL for 5–10 minutes, after which the tissue sample was washed with a PBS solution and analyzed by live-cell inverted confocal microscopy ( Figures 11A–C ).
To detect peptide localization, the biopsy material was additionally stained with a mitochondrial marker MitoGreen and anti-Hsp70 antibodies (SPA-810). […] Additionally, we assessed the depth of the RAS70-sCy3/sCy5 penetration into the tumor tissues […]. […]

| SMILES | fluorescently labeled tumor cells in the lower chamber [1] | accumulation in patient brain tumor samples ([2]; 1 mg/mL, 5–10 minutes, live-cell inverted confocal microscopy, adult (n=6) and pediatric (n=2) patients) | depth of the peptide penetration into the tumor tissues ([2]; RAS70-sCy3/sCy5 topically applied on patient tumor samples, histological sections, fluorescent microscopy) | retention in necrotic tumor areas ([2]; patient tumor samples, confocal microscopy) |
| --- | --- | --- | --- | --- |
| CC(C)C[C@H](NC(=O)[C@H](CC(C)C)NC(=O)[C@H](CC(N)=O)NC(=O)[C@H](CC(N)=O)NC(=O)[C@H](CC(=O)O)NC(=O)[C@H](CCCCN)NC(=O)[C@@H](N)[C@@H](C)O)C(=O)NCC(=O)N[C@@H](CCCNC(=N)N)C(=O)N[C@@H](Cc1ccccc1)C(=O)N[C@@H](CCC(=O)O)C(=O)N[C@@H](CC(C)C)C(=O)N[C@@H](CO)C(=O)NCC(=O)NCCC(=O)N[C@@H](CCCNC(=N)N)C(=O)NCC(=O)N[C@@H](CC(=O)O)C(=O)O [RAS70] | 578 ± 67 cells | noted in all analyzed samples | 3.0 ± 0.87 mm | non-specific retention of the peptide |
| CC(C)C[C@H](NC(=O)[C@H](CC(C)C)NC(=O)[C@H](CC(N)=O)NC(=O)[C@H](CC(N)=O)NC(=O)[C@H](CC(=O)O)NC(=O)[C@H](CCCCN)NC(=O)[C@@H](N)[C@@H](C)O)C(=O)NCC(=O)N[C@@H](CCCNC(=N)N)C(=O)N[C@@H](Cc1ccccc1)C(=O)N[C@@H](CCC(=O)O)C(=O)N[C@@H](CC(C)C)C(=O)N[C@@H](CO)C(=O)NCC(=O)O [TKD] | 337 ± 38 cells | – | – | – |
